# Assay results published in US20170014354A1, “ZEAXANTHIN FOR TUMOR TREATMENT” (The New York Eye and Ear Infirmary, priority 2012, published 2017).
# Assays:
# A375 = assay: MTT cell viability, A375 cutaneous melanoma; assay type: cell-based; conditions: 48 h, vs control
# Experimental: (§1) Each malignant tumor cell line was cultured in Dulbecco's modified Eagle's medium (DMEM, GIBCO, Carlsbad, Calif.) supplemented with 10% fetal bovine serum (FBS, GIBCO). Cells were incubated in a humidified 5% CO2 atmosphere at 37° C. After reaching confluence, cells were detached by trypsin-EDTA solution (GIBCO), diluted 1:4-1:6, plated for subculture and were passaged routinely at a dilution of 1:4-1:6 every 4-6 days.
# (§2) All cell lines were tested in triplicates.
# COLO829 = assay: MTT cell viability, COLO829 cutaneous melanoma; assay type: cell-based; conditions: 48 h, vs control
# Experimental: as §1, §2
# HCT116 = assay: MTT cell viability, HCT116 colon cancer; assay type: cell-based; conditions: 48 h, vs control
# Experimental: as §1, §2
# C918 = assay: MTT cell viability, C918 uveal melanoma; assay type: cell-based; conditions: vs control; for Cell viability: 48 h, MTT; for reduction of cell viabilities: FIG. 1C
# Experimental: as §1, §2
# SP6.5 = assay: MTT cell viability, SP6.5 uveal melanoma; assay type: cell-based; conditions: vs control; for Cell viability: 48 h, MTT; for reduction of cell viabilities: FIG. 1B
# Experimental: as §1, §2
# M17 = assay: MTT cell viability, M17 uveal melanoma; assay type: cell-based, human; conditions: 48 h, vs control
# Experimental: as §1, §2
# OCM2 = assay: MTT cell viability, OCM2 uveal melanoma; assay type: cell-based; conditions: 48 h, vs control
# Experimental: as §1, §2
# Hep G2 = assay: MTT cell viability, Hep G2 hepatocellular carcinoma; assay type: cell-based; conditions: 48 h, vs control
# Experimental: as §1, §2
# A549 = assay: MTT cell viability, A549 lung cancer; assay type: cell-based; conditions: for Cell viability: 48 h, MTT, vs control
# Experimental: as §1, §2
# NCI-H1755 = assay: MTT cell viability, NCI-H1755 lung cancer; assay type: cell-based; conditions: for Cell viability: 48 h, MTT, vs control
# Experimental: as §1, §2
# MCF-7 = assay: MTT cell viability, MCF-7 breast cancer; assay type: cell-based; conditions: for Cell viability: 48 h, MTT, vs control
# Experimental: as §1, §2
# PANC-1 = assay: MTT cell viability, PANC-1 pancreatic cancer; assay type: cell-based; conditions: for Cell viability: 48 h, MTT, vs control
# Experimental: as §1, §2
# BC-1 = assay: MTT cell viability, BC-1 lymphoma; assay type: cell-based; conditions: for Cell viability: 48 h, MTT, vs control
# Experimental: as §1, §2
# [1] = system: uveal melanoma cells (SP6.5); assay: Annexin V-FITC staining apoptosis analysis; assay type: cell-based
# Experimental: FIG. 3 illustrates the fluorescence photomicrograph of pro-apoptotic effects of zeaxanthin on uveal melanoma cells after annexin V-FTIC staining. Melanoma cells (SP6.5 cell line) were treated by zeaxanthin at a concentration of 100 μM for 24 hr, and the extent of apoptosis was determined by annexin V-FTIC staining. Cells were observed under fluorescence microscope using 492 nm and 530 nm filters for recognizing and detecting FITC.
# In these tests, we measured the extent of apoptosis of cells treated with zeaxanthin by annexin V-FITC staining analysis. Specifically, uveal melanoma cells (SP6.5) were plated into 8-well plates at a density of 6×10^4 cells/well. After culturing for 24 hours, cells were treated with zeaxanthin at final concentration of 10, 30, and 100 μM for another 24 hours in a CO2 incubator at 37C. Then the culture medium was aspirated and the cells were washed with the binding buffer in preparation for annexin V-FITC staining analysis. FITC-annexin V was added into each well and the cells were stained for 15 min in the dark, followed by washing with the binding buffer. The cells were then observed under fluorescence microscope using 492 nm and 530 nm filters that facilitate FITC fluorescence detection to measure the extent of apoptosis based on the principle that cell membranes of apoptotic cells were stained bright green in color.
# malignant hepatic tumor = assay: Treatment of a patient with recurred malignant hepatic tumor; assay type: in vivo, human; conditions: one patient
# Experimental: In this example, zeaxanthin was used to treat a patient with malignant hepatic tumor. […] The tumor recurred in a few months in the patient after resection. The patient was then treated with zeaxanthin in view of the extensive and safe use of zeaxanthin as a supplement of the treatment of macular disorders.
# In treating the recurred malignant hepatic tumor in the patient, we prescribed a dose of 80 mg/day of zeaxanthin which was used to supplement their conventional treatment of Avastin® infusion. […] The patient's condition continued to improve under the combination therapy of zeaxanthin and Avastin® infusion in the next 9 months. The patient was able to resume their social life during the period of 9 months and then passed away after 2 months. The patient's life was prolonged more than 1 year following their projected mortality under the conventional Avastin® infusion treatment on the recurring malignant hepatic tumor.
# Therefore, a dosage of about 1.2 mg/kg/d of zeaxanthin was sufficient to help reducing tumor cell viability in the patient under the combination therapy.
structure (smiles),measurement,setting,value
CC1=C(/C=C/C(C)=C/C=C/C(C)=C/C=C/C=C(C)/C=C/C=C(C)/C=C/C2=C(C)C[C@@H](O)CC2(C)C)C(C)(C)C[C@H](O)C1 [zeaxanthin],Cell viability,"A375; A375, 10 μM zeaxanthin",62 ± 2.7%
same,Cell viability,"A375; A375, 30 μM zeaxanthin",41 ± 2.7%
same,Cell viability,"A375; A375, 100 μM zeaxanthin",6%
same,Cell viability,"COLO829; COLO829, 10 μM zeaxanthin",73 ± 4.6%
same,Cell viability,"COLO829; COLO829, 30 μM zeaxanthin",52 ± 2.0%
same,Cell viability,"COLO829; COLO829, 100 μM zeaxanthin",28 ± 1.2%
same,Cell viability,"HCT116; HCT116, 10 μM zeaxanthin",67 ± 3.7%
same,Cell viability,"HCT116; HCT116, 30 μM zeaxanthin",56 ± 2.3%
same,Cell viability,"HCT116; HCT116, 100 μM zeaxanthin",16 ± 1.4%
same,Cell viability,"C918; C918, 10 μM zeaxanthin",79 ± 4.1%
same,reduction of cell viabilities,"C918; C918, 10 μM zeaxanthin",about 21%
same,Cell viability,"C918; C918, 30 μM zeaxanthin",48 ± 2.6%
same,reduction of cell viabilities,"C918; C918, 30 μM zeaxanthin",~52%
same,Cell viability,"C918; C918, 100 μM zeaxanthin",12 ± 1.0%
same,reduction of cell viabilities,"C918; C918, 100 μM zeaxanthin",~88%
same,Cell viability,"SP6.5; SP6.5, 10 μM zeaxanthin",86 ± 4.3%
same,reduction of cell viabilities,"SP6.5; SP6.5, 10 μM zeaxanthin",about 14%
same,Cell viability,"SP6.5; SP6.5, 30 μM zeaxanthin",64 ± 1.7%
same,reduction of cell viabilities,"SP6.5; SP6.5, 30 μM zeaxanthin",~36%
same,Cell viability,"SP6.5; SP6.5, 100 μM zeaxanthin",42 ± 2.2%
same,reduction of cell viabilities,"SP6.5; SP6.5, 100 μM zeaxanthin",~58%
same,Cell viability,"M17; M17, 10 μM zeaxanthin",84 ± 3.9%
same,Cell viability,"M17; M17, 30 μM zeaxanthin",69 ± 2.5%
same,Cell viability,"M17; M17, 100 μM zeaxanthin",41 ± 1.0%
same,Cell viability,"OCM2; OCM2, 10 μM zeaxanthin",90 ± 4.9%
same,Cell viability,"OCM2; OCM2, 30 μM zeaxanthin",70 ± 2.1%
same,Cell viability,"OCM2; OCM2, 100 μM zeaxanthin",46 ± 2.0%
same,Cell viability,"Hep G2; Hep G2, 10 μM zeaxanthin",79 ± 3.7%
same,Cell viability,"Hep G2; Hep G2, 30 μM zeaxanthin",58 ± 1.8%
same,Cell viability,"Hep G2; Hep G2, 100 μM zeaxanthin",32 ± 1.2%
same,Cell viability,"A549; A549, 10 μM zeaxanthin",94 ± 6.6%
same,Cell viability,"A549; A549, 30 μM zeaxanthin",86 ± 4.4%
same,Cell viability,"A549; A549, 100 μM zeaxanthin",67 ± 6.1%
same,final concentration at which cell viability decreased significantly,"A549; A549, vs cells without zeaxanthin",≥ 100 µM
same,Cell viability,"NCI-H1755; NCI-H1755, 10 μM zeaxanthin",86 ± 6.7%
same,Cell viability,"NCI-H1755; NCI-H1755, 30 μM zeaxanthin",81 ± 4.5%
same,Cell viability,"NCI-H1755; NCI-H1755, 100 μM zeaxanthin",81 ± 90%
same,final concentration at which cell viability decreased significantly,"NCI-H1755; NCI-H1755, vs cells without zeaxanthin",≥ 30 µM
same,Cell viability,"MCF-7; MCF-7, 10 μM zeaxanthin",86 ± 4.0%
same,Cell viability,"MCF-7; MCF-7, 30 μM zeaxanthin",73 ± 8.3%
same,Cell viability,"MCF-7; MCF-7, 100 μM zeaxanthin",52 ± 2.4%
same,final concentration at which cell viability decreased significantly,"MCF-7; MCF-7, vs cells without zeaxanthin",≥ 30 µM
same,final concentration at which cell viability decreased significantly,"PANC-1; PANC, vs cells without zeaxanthin",≥ 100 µM
same,Cell viability,"PANC-1; PANC-1, 10 μM zeaxanthin",101 ± 6.0%
same,Cell viability,"PANC-1; PANC-1, 30 μM zeaxanthin",98 ± 5.5%
same,Cell viability,"PANC-1; PANC-1, 100 μM zeaxanthin",76 ± 5.1%
same,Cell viability,"BC-1; BC-1, 10 μM zeaxanthin",79 ± 8.2%
same,Cell viability,"BC-1; BC-1, 30 μM zeaxanthin",67 ± 11%
same,Cell viability,"BC-1; BC-1, 100 μM zeaxanthin",69 ± 7.1%
same,final concentration at which cell viability decreased significantly,"BC-1; BC-1, vs cells without zeaxanthin",≥ 30 µM
same,annexin V staining of the cell membrane (apoptotic cells),"[1]; SP6.5, 100 μM zeaxanthin, 24 hr, FIG. 3",numerous cells showed staining of the cell membrane with annexin V
same,extent of apoptosis (annexin V-FITC staining),"[1]; SP6.5, 10, 30 and 100 μM zeaxanthin, 24 hours",apoptosis in uveal melanoma cells induced by zeaxanthin in a dose-dependent manner
same,MRI scans of multiple recurrent hepatic tumors,"malignant hepatic tumor; 80 mg/day zeaxanthin supplementing Avastin infusion, after several months",began to shrink significantly to the point of where the tumors could not be detected
same,prolongation of life beyond projected mortality under conventional Avastin infusion,malignant hepatic tumor; 80 mg/day zeaxanthin with Avastin infusion,more than 1 year
